According to patent US20080318943A1, “Compounds and Uses Thereof - 848” (ASTRAZENECA AB, priority 2007, published 2008):

How the values were obtained:
[1] = biological target: T1, GABAA2 receptors (α2, β3, γ2 receptor subunits transfected into Sf9 cells) (Homo sapiens, UniProt P18507+P47869); experiment: GABAA2 Binding Method ([3H]-Flunitrazepam displacement); conditions: [3H]-Flunitrazepam ~2 nM, α2β3γ2 Sf9 membranes, 1 hr at 4° C.
T1 construct: host or cells: Sf9 cells (membranes)
Summary of the method: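 Membranes from Sf9 cells expressing α2β3γ2 GABAA receptors incubated with ~2 nM (final) [3H]-flunitrazepam and test compound 1 h at 4 °C, then filtered on GF/B plates with cold-buffer washes. Flumazenil-defined controls; percent of control, IC50 and Ki calculated.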

GABAA receptor α1β2γ2 = biological target: T2, GABAA receptor α1β2γ2 (Homo sapiens, UniProt P14867+P18507); experiment: Two-electrode voltage-clamp potentiation of GABA EC10 current in Xenopus oocytes, GABAA1; assay type: cell-based; conditions: percentage potentiation of GABA EC10 current divided by that of diazepam
T2 construct: expressed in transfected cells; host or cells: Xenopus laevis oocytes injected with cRNA
Summary of the method: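 Human GABAA receptors expressed in Xenopus oocytes by cRNA injection (α:β:γ molar ratio ~1:1:10 for α1β2γ2, 1:1:1 for α2β3γ2), recorded 2-10 days later by two-electrode voltage clamp at −60 mV in ND-96, pH 7.5. Modulator preapplied 30 s before GABA at per-oocyte EC10. Peak-current percent potentiation over GABA alone, normalised to diazepam.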

GABAA receptor α2β3γ2 = biological target: T3, GABAA receptor α2β3γ2 (Homo sapiens, UniProt P18507+P47869); experiment: Two-electrode voltage-clamp potentiation of GABA EC10 current in Xenopus oocytes, GABAA2; assay type: cell-based; conditions: percentage potentiation of GABA EC10 current divided by that of diazepam
T3 construct: expressed in transfected cells; host or cells: Xenopus laevis oocytes injected with cRNA
Procedure: GABAA receptors were heterologously expressed in Xenopus oocytes by injecting cRNA corresponding to human α1, α2, α3, α5, β2, P3 and γ2 subunits of the GABAA receptor genes. The specific subunit combinations (subtypes) were as follows: α1β2γ2, α2β3γ2, α3β3γ2, and α5β3γ2. The EC10 of GABA is approximated for each cell. Stability of GABA-mediated (EC10) current is established. Modulatory effect of test compound is determined and compared across subtypes. […] Thus, the assay can characterize modulatory effects and determine subtype selectivity of test compounds on major subtypes of GABAA receptors.
Xenopus laevis frogs (Xenopus I, Kalamazoo, Mich.) were anesthetized using 0.15% tricaine. Surgically removed ovarian lobes were teased out in OR2 solution (82 NaCl, 2.5 KCl, 5 HEPES, 1.5 NaH2PO4, 1 MgCl2, 0.1 EDTA, in mM, pH 7.4). The oocytes were defolliculated by incubation in 25 mL OR2 containing 0.2% collagenase 1A (SIGMA) two times for about 60 minutes on a platform shaker and stored in Leibovitz's L-15 medium. Oocytes were injected the following day in 0.5× Leibovitz's L-15 medium containing […] gentamycin, 10 units/ml penicillin, and […] streptomycin.
Capped cRNAs from the linearized vectors containing human α1, β2 and γ2 subunits of the GABAA receptor genes were mixed in ratio of […]. Oocytes were injected with 25-50 nL of mixed RNA with an appx molar ratio for α1, β2, and γ2 as 1:1:10. Oocyte recordings were done 2-10 days after injection. The same methods apply to subtypes derived from α2β3γ2, α3β3γ2, and α5β3γ2, except for 1:1:1 ratio was used for α, β, and γ subunits.
All measurements were done in a medium containing ND-96 (96 NaCl, 2 KCl, 1.8 CaCl2.2H2O, 1 MgCl2.6H2O, 5 HEPES, in mM, pH 7.5). Two-electrode voltage-clamp recording was carried out using OpusXpress amplifier (Axon Instruments, Foster City, Calif.), which allows simultaneous recording from 8 oocytes. Oocytes were impaled with two electrodes of 1-2 MΩ tip resistance when filled with 3M KCl. Recordings were begun when membrane potential became stable at potentials negative to −50-−60 mV. Membrane potential was held at −60 mV. […] The concentration of GABA corresponded to the EC10 value calculated for each oocyte. The modulator pulses started 30 s before the GABA pulse so as to allow preincubation with the modulator. A set of 3 pulses with just GABA without modulator was given prior to the modulator-containing pulses to define the baseline GABA response. Two oocytes per each experiment were dedicated to observe the effect of diazepam on GABA response to ensure the presence of γ2 subunit in the GABAA pentameric complex, which imparts diazepam sensitivity to the complex.
Current amplitude (i) was measured from baseline to peak using Clampfit (Axon Inst., Foster City, Calif.). Potentiation was calculated as percent change from the baseline GABA current flux 100×(imod/icontrol)−1) where imod=current mediated by modulator+GABA and icontrol=current mediated by GABA alone. […] Similarly, a value of −50% potentiation means the presence of modulator caused a 50% decrease in the control current. Various other data shown here were fitted and plotted using GraphPad Prism (GraphPad Software, Inc. San Diego, Calif.). The percentage potentiation was converted to relative potentiation by dividing it with percentage potentiation value obtained from the same assay with diazepam as a control.

[2] = listed as 9-Amino-2-cyclobutyl-5-((P)-2-fluoro-6-methoxyphenyl)-2,3-dihydro-pyrrolo[3,4-b]
[3] = listed as 9-Amino-2-cyclobutyl-5-((M)-2-fluoro-6-methoxyphenyl)-2,3-dihydro-pyrrolo[3,4-b]

T2 sequence (P14867 28-456): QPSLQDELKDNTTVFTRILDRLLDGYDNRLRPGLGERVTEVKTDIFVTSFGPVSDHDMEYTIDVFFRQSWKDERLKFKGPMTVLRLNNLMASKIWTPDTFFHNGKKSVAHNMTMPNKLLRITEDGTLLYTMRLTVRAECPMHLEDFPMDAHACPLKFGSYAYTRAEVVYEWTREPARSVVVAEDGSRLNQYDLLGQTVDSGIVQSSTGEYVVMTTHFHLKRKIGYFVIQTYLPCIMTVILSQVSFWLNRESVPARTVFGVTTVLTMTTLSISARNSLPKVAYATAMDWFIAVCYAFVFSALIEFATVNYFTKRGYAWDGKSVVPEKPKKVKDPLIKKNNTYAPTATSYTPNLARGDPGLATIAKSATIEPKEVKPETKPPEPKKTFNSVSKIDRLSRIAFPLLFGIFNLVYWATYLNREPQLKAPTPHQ
T2 sequence (P47870 25-512 partner limits assumed): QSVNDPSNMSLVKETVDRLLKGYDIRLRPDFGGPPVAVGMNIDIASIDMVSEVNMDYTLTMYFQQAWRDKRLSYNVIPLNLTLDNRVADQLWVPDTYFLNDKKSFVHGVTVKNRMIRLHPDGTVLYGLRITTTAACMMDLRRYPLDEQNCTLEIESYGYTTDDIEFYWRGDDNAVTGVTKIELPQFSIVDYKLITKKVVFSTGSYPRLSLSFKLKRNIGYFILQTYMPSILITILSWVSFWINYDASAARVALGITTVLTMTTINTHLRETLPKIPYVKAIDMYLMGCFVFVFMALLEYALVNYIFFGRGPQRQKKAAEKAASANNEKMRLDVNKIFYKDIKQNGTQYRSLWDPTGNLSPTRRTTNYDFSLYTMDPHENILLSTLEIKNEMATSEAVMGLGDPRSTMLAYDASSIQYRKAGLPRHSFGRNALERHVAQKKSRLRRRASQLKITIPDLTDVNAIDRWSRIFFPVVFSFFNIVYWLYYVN
T2 sequence (P18507 40-475): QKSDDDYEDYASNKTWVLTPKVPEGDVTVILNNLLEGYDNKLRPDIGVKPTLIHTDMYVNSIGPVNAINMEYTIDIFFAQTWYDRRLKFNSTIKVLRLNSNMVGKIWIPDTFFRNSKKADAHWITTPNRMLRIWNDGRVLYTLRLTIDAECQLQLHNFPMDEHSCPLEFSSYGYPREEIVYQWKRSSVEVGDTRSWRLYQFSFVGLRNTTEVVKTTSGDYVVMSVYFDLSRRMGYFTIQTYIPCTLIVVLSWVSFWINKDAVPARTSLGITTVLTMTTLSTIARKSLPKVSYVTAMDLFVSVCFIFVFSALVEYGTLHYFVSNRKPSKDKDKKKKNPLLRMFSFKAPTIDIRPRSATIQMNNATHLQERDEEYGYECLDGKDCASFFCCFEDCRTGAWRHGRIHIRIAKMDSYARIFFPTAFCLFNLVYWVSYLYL
T1 sequence (P47869 29-451): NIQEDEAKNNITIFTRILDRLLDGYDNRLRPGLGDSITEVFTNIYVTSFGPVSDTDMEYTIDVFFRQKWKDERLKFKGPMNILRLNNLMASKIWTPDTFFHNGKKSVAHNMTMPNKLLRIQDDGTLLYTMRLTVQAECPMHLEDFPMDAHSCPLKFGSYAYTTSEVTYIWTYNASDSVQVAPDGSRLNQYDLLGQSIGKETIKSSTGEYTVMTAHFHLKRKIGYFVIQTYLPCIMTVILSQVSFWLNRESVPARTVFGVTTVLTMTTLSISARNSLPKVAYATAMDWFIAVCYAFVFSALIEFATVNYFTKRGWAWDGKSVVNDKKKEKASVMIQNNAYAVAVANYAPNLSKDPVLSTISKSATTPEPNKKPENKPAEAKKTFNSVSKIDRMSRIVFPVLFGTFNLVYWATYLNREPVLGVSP
T1 sequence (P28472 26-473 partner): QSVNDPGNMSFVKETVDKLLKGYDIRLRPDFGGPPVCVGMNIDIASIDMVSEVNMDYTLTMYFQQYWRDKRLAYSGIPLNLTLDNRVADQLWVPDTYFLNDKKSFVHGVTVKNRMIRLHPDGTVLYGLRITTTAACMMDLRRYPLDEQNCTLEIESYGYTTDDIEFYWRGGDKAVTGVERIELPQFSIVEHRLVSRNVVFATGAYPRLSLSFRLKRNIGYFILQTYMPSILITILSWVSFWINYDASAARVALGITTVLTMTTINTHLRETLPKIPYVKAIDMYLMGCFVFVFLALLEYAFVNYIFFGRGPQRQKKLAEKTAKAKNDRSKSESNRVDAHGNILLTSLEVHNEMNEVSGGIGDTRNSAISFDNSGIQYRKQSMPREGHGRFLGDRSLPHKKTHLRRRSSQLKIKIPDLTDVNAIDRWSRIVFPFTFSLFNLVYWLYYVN
T1 sequence (P18507 40-475): as the sequence (P18507 40-475) above
T3 sequence (P47869 29-451): as the sequence (P47869 29-451) above
T3 sequence (P28472 26-473 partner): as the sequence (P28472 26-473 partner) above
T3 sequence (P18507 40-475): as the sequence (P18507 40-475) above

Compound | Ki [1] [nM] | Relative Potentiation for GABAA1 (GABAA receptor α1β2γ2) | Relative Potentiation for GABAA2 (GABAA receptor α2β3γ2) | also measured
COc1cccc(F)c1-c1cccc2c(N)c3c(nc12)CN([C@H]1C[C@@H](C)C1)C3=O | 0.945 | 0.054 | 0.39 | –
COc1ncccc1-c1cccc2c(N)c3c(nc12)CN([C@H]1C[C@@H](C)C1)C3=O | 1.29 | 0.085 | 0.51 | –
COc1ccc(-c2cccc3c(N)c4c(nc23)CN([C@H]2C[C@@H](C)C2)C4=O)c(C)n1 | 4.65 | 0.14 | 0.3 | –
COc1ncccc1-c1c(F)ccc2c(N)c3c(nc12)CN(C1CCOC1)C3=O (stereo not drawn) | 18.8 | 0.097 | 0.32 | –
COc1cccc(F)c1-c1cccc2c(N)c3c(nc12)CN(C1CC1)C3=O (atropisomer, axis not shown; (P)) | 3.63 | −0.018 | 0.38 | –
COc1cccc(F)c1-c1cccc2c(N)c3c(nc12)CN(C1CCC1)C3=O (single isomer, unassigned) [Example 129, 9-Amino-2-cyclobutyl-5-((P)-2-fluoro-6-methoxyphenyl)-2,3-dihydropyrrolo[3,4-b]quinolin-1-one] | 0.289 | – | – | Relative Potentiation for GABAA1 (GABAA receptor α1β2γ2; [2]): −0.11; Relative Potentiation for GABAA2 (GABAA receptor α2β3γ2; [2]): 0.23
COc1cccc(F)c1-c1cccc2c(N)c3c(nc12)CN(C1CCC1)C3=O (single isomer, unassigned) [Example 130, 9-Amino-2-cyclobutyl-5-((M)-2-fluoro-6-methoxyphenyl)-2,3-dihydropyrrolo[3,4-b]quinolin-1-one] | 9.21 | – | – | Relative Potentiation for GABAA1 (GABAA receptor α1β2γ2; [3]): 0.002; Relative Potentiation for GABAA2 (GABAA receptor α2β3γ2; [3]): 0.23
COc1ccc(-c2cccc3c(N)c4c(nc23)CN(C)C4=O)c(OC)n1 [9-Amino-5-(2,6-dimethoxypyridin-3-yl)-2-methyl-2,3-dihydropyrrolo[3,4-b]quinolin-1-one] | 290 | – | 0.19 | –
CCCN1Cc2nc3c(-c4cc(Br)cnc4OC)cccc3c(N)c2C1=O [9-amino-5-(5-bromo-2-methoxypyridin-3-yl)-2-propyl-2,3-dihydro-1H-pyrrolo[3,4-b]quinolin-1-one] | 10.6 | 0.53 | – | –
COc1ccc(Cl)cc1-c1cccc2c(N)c3c(nc12)CN(C1CC1)C3=O [9-amino-5-(5-chloro-2-methoxyphenyl)-2-cyclopropyl-2,3-dihydro-1H-pyrrolo[3,4-b]quinolin-1-one] | 8.95 | 0.19 | – | –
CCCN1Cc2nc3c(-c4cc(Cl)cnc4OC)cccc3c(N)c2C1=O [9-amino-5-(5-chloro-2-methoxypyridin-3-yl)-2-propyl-2,3-dihydro-1H-pyrrolo[3,4-b]quinolin-1-one] | 21.5 | 0.49 | – | –
COc1ccc(CN2Cc3nc4c(-c5cc(F)ccc5OC)cccc4c(N)c3C2=O)cc1 [9-amino-5-(5-fluoro-2-methoxyphenyl)-2-(4-methoxybenzyl)-2,3-dihydro-1H-pyrrolo[3,4-b]quinolin-1-one] | 46.3 | 0.39 | – | –
COc1ccc(CN2Cc3nc4c(-c5cc(F)ccc5C)cccc4c(N)c3C2=O)cc1 [9-amino-5-(5-fluoro-2-methylphenyl)-2-(4-methoxybenzyl)-2,3-dihydro-1H-pyrrolo[3,4-b]quinolin-1-one] | 25.8 | 0.22 | – | –
CCCN1Cc2nc3c(-c4cc(F)ccc4C)cccc3c(N)c2C1=O [9-amino-5-(5-fluoro-2-methylphenyl)-2-propyl-2,3-dihydro-1H-pyrrolo[3,4-b]quinolin-1-one] | 6.3 | 0.29 | – | –
CCCN1Cc2nc3c(-c4cncc(OC)c4)cccc3c(N)c2C1=O [9-amino-5-(5-methoxypyridin-3-yl)-2-propyl-2,3-dihydro-1H-pyrrolo[3,4-b]quinolin-1-one] | 63 | 0.23 | – | –
Cc1nc(Cl)ccc1-c1cccc2c(N)c3c(nc12)CN(C1CC1)C3=O [9-amino-5-(6-chloro-2-methylpyridin-3-yl)-2-cyclopropyl-2,3-dihydro-1H-pyrrolo[3,4-b]quinolin-1-one] | 28 | 0.16 | – | –
CCCN1Cc2nc3c(-c4ccc(Cl)nc4C)cccc3c(N)c2C1=O [9-amino-5-(6-chloro-2-methylpyridin-3-yl)-2-propyl-2,3-dihydro-1H-pyrrolo[3,4-b]quinolin-1-one] | 23.1 | 1.1 | – | –
CCCN1Cc2nc3c(-c4ccc(OC)nc4C)cccc3c(N)c2C1=O [9-amino-5-(6-methoxy-2-methylpyridin-3-yl)-2-propyl-2,3-dihydro-1H-pyrrolo[3,4-b]quinolin-1-one] | 16.4 | 0.29 | – | –
CCCN1Cc2nc3c(-c4cnc(OC)c(C)c4)cccc3c(N)c2C1=O [9-amino-5-(6-methoxy-5-methylpyridin-3-yl)-2-propyl-2,3-dihydro-1H-pyrrolo[3,4-b]quinolin-1-one] | 36.5 | 0.32 | – | –
CCCN1Cc2nc3c(-c4ccoc4)cccc3c(N)c2C1=O [9-amino-5-(furan-3-yl)-2-propyl-2,3-dihydro-1H-pyrrolo[3,4-b]quinolin-1-one] | 38.2 | 0.13 | – | –
CCCN1Cc2nc3c(-c4ccccc4)cccc3c(N)c2C1=O [9-amino-5-phenyl-2-propyl-2,3-dihydro-1H-pyrrolo[3,4-b]quinolin-1-one] | 43.8 | 0.51 | – | –
CCN1Cc2nc3c(-c4ccc(OC)nc4OC)cccc3c(N)c2C1=O [Example 27, 9-Amino-5-(2,6-dimethoxypyridin-3-yl)-2-ethyl-2,3-dihydropyrrolo[3,4-b]quinolin-1-one] | 50.1 | – | 0.18 | –
CCCN1Cc2nc3c(-c4cccnc4)cccc3c(N)c2C1=O [Example 40, 9-Amino-2-propyl-5-pyridin-3-yl-2,3-dihydropyrrolo[3,4-b]quinolin-1-one] | 46.5 | – | 0.27 | –
CCCCN1Cc2nc3c(-c4ccc(OC)nc4OC)cccc3c(N)c2C1=O [Example 43, 9-Amino-2-butyl-5-(2,6-dimethoxypyridin-3-yl)-2,3-dihydropyrrolo[3,4-b]quinolin-1-one] | 45 | – | 0.37 | –
COc1cccc(C#N)c1-c1cccc2c(N)c3c(nc12)CN(C1CC1)C3=O [Example 139, 2-(9-Amino-2-cyclopropyl-1-oxo-2,3-dihydro-1H-pyrrolo[3,4-b]quinolin-5-yl)-3-methoxybenzonitrile] | – | −0.078 | 0.15 | –
